Laboratory results: patent US10294202B2, “Pyrrolidinones as herbicides” (FMC Corporation, priority 2013, dated 2019)

Assays:
Assay in all cases: Test C pre-/postemergence herbicide test
goosegrass = assay type: in vivo, Eleusine indica
In short: (§1)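 Greenhouse pots; formulation = non-phytotoxic solvent mix + surfactant. PRE onto seeds in loam:sand; POST at 1–4 leaves (2–18 cm) in peat moss/vermiculite medium. Read-out: visual % control vs untreated, day 13–15.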

cocklebur = assay type: in vivo, Xanthium strumarium
In short: as §1

bermudagrass = assay type: in vivo, Cynodon dactylon
In short: as §1

sunflower = assay type: in vivo, Helianthus annuus; settings: Preemergence
In short: as §1

nightshade = assay type: in vivo, Solanum ptycanthum; settings: Preemergence
Description: (§2) Seeds of plant species selected from blackgrass (Alopecurus myosuroides), ryegrass, Italian (Italian ryegrass, Lolium multiflorum), wheat (winter wheat, Triticum aestivum), galium (catchweed bedstraw, Galium aparine), corn (Zea mays), crabgrass, large (large crabgrass, Digitaria sanguinalis), foxtail, giant (giant foxtail, Setaria faberii), johnsongrass (Sorghum halepense), lambsquarters (Chenopodium album), morningglory (Ipomoea coccinea), nutsedge, yellow (yellow nutsedge, Cyperus esculentus), pigweed (Amaranthus retroflexus), ragweed (common ragweed, Ambrosia elatior), soybean (Glycine max), barnyardgrass (Echinochloa crus-galli), oilseed rape (Brassica napus), waterhemp (common waterhemp, Amaranthus rudis), kochia (Kochia scoparia), oat, wild (wild oat, Avena fatua), surinam grass (Brachiaria decumbens), foxtail, green (green foxtail, Setaria viridis), goosegrass (Eleusine indica), bromegrass, downy (downy bromegrass, Bromus tectorum), nightshade (eastern black nightshade, Solanum ptycanthum), cocklebur (common cocklebur, Xanthium strumarium), cupgrass, woolly (woolly cupgrass, Eriochloa villosa), bermudagrass (Cynodon dactylon), sunflower, (common oilseed sunflower, Helianthus annuus), Russian thistle (Salsola kali) and velvetleaf (Abutilon theophrasti) were planted into a blend of loam soil and sand and treated preemergence with test chemicals formulated in a non-phytotoxic solvent mixture which included a surfactant. At the same time, plants selected from these crop and weed species and also barley (winter barley, Hordeum vulgare), […]), chickweed (common chickweed, Stellaria media), deadnettle (henbit deadnettle, Lamium amplexicaule), and canarygrass (littleseed canarygrass, Phalaris minor) were planted in pots containing Redi-Earth® planting medium (Scotts Company, 14111 Scottslawn Road, Marysville, Ohio 43041) comprising spaghnum peat moss, vermiculite, wetting agent and starter nutrients and treated with postemergence applications of test chemicals formulated in the same manner. Plants ranged in height from 2 to 18 cm (1- to 4-leaf stage) for postemergence treatments. Treated plants and controls were maintained in a greenhouse for 13 to 15 days, after which time all species were compared to controls and visually evaluated. Plant response ratings, summarized in Table C, are based on a scale of 0 to 100 where 0 is no effect and 100 is complete control. A dash (-) response means no test result.

foxtail, green = assay type: in vivo, Setaria viridis
Description: as §2

Russian thistle = assay type: in vivo, Salsola kali; settings: Preemergence
Description: as §2

surinam grass = assay type: in vivo, Brachiaria decumbens
In short: as §1

cupgrass, woolly = assay type: in vivo, Eriochloa villosa
Description: as §2

bromegrass, downy = assay type: in vivo, Bromus tectorum
In short: as §1

[1] = Postemergence, 31 g ai/ha, scale 0 (no effect) to 100 (complete control)
[2] = Postemergence, 62 g ai/ha, scale 0 to 100 (0 no effect, 100 complete control)
[3] = Postemergence, 125 g ai/ha, scale 0 to 100 (0 no effect, 100 complete control)
[4] = Postemergence, 250 g ai/ha, scale 0 to 100 (0 no effect, 100 complete control)
[5] = Preemergence, 31 g ai/ha, scale 0 to 100, 0 is no effect and 100 is complete control
[6] = Preemergence, 62 g ai/ha, scale 0 to 100
[7] = Preemergence, 125 g ai/ha, scale 0 to 100 (0 no effect, 100 complete control)
[8] = 31 g ai/ha, scale 0 to 100, 0 is no effect and 100 is complete control
[9] = 125 g ai/ha, scale 0 to 100 (0 no effect, 100 complete control)
[10] = Preemergence, 31 g ai/ha, scale 0 to 100 (0 no effect, 100 complete control)
[11] = Preemergence, 250 g ai/ha, scale 0 to 100 (0 no effect, 100 complete control)

O=C1NCC(c2ccccc2)C1C(=O)Nc1ccccc1F (racemic) [Compound 81]
Plant response rating, Goosegrass (goosegrass; [1]): 0 | Plant response rating, Goosegrass (goosegrass; [2]): 0 | Plant response rating, Goosegrass (goosegrass; [3]): 0 | Plant response rating, Goosegrass (goosegrass; [4]): 0 | Goosegrass plant response rating (goosegrass; [5]): 0 | Plant response rating, Goosegrass (goosegrass; [6]): 0 | Plant response rating, Goosegrass (goosegrass; [7]): 0 | Plant response rating (scale of 0 to 100), Goosegrass (goosegrass; Preemergence, 250 g ai/ha): 0 | Plant response rating, Cocklebur (cocklebur; [1]): 0 | Plant response rating, Cocklebur (cocklebur; [2]): 0 | Plant response rating, Cocklebur (cocklebur; [3]): 0 | Plant response rating, Cocklebur (cocklebur; [4]): 0 | Cocklebur plant response rating (cocklebur; [5]): 0 | Plant response rating, Cocklebur (cocklebur; [6]): 0 | Plant response rating, Cocklebur (cocklebur; [7]): 0 | Plant response rating (scale of 0 to 100), Cocklebur (cocklebur; Preemergence, 250 g ai/ha): 0 | Plant response rating, Bermudagrass (bermudagrass; [1]): 0 | Plant response rating, Bermudagrass (bermudagrass; [2]): 0 | Plant response rating, Bermudagrass (bermudagrass; [3]): 0 | Plant response rating, Bermudagrass (bermudagrass; [4]): 0 | Bermudagrass plant response rating (bermudagrass; [5]): 0 | Plant response rating, Bermudagrass (bermudagrass; [6]): 0 | Plant response rating, Bermudagrass (bermudagrass; [7]): 0 | Plant response rating (scale of 0 to 100), Bermudagrass (bermudagrass; Preemergence, 250 g ai/ha): 0 | Sunflower plant response rating (sunflower; [8]): 0 | Plant response rating Sunflower (sunflower; 62 g ai/ha, scale 0 to 100): 0 | Plant response rating Sunflower (sunflower; [9]): 0 | Plant response rating (scale of 0 to 100), Sunflower (sunflower; 250 g ai/ha): 0 | Nightshade plant response rating (nightshade; [8]): 0 | Plant response rating, Nightshade (nightshade; 62 g ai/ha, scale 0 to 100): 0 | Plant response rating, Nightshade (nightshade; [9]): 0 | Plant response rating (scale of 0 to 100), Nightshade (nightshade; 250 g ai/ha): 0 | Plant response rating, Foxtail, Green (foxtail, green; [1]): 5 | Plant response rating, Foxtail, Green (foxtail, green; [2]): 5 | Plant response rating, Foxtail, Green (foxtail, green; [3]): 20 | Plant response rating, Foxtail, Green (foxtail, green; [4]): 48 | Foxtail, Green plant response rating (foxtail, green; [5]): 20 | Plant response rating, Foxtail, Green (foxtail, green; [6]): 67 | Plant response rating, Foxtail, Green (foxtail, green; [7]): 80 | Plant response rating (scale of 0 to 100), Foxtail, Green (foxtail, green; Preemergence, 250 g ai/ha): 90 | Russian Thistle plant response rating (Russian thistle; [8]): 0 | Plant response rating, Russian Thistle (Russian thistle; 62 g ai/ha, scale 0 to 100): 0 | Plant response rating, Russian Thistle (Russian thistle; [9]): 0 | Plant response rating (scale of 0 to 100), Russian Thistle (Russian thistle; 250 g ai/ha): 0 | Plant response rating, Surinam Grass (surinam grass; [1]): 0 | Plant response rating, Surinam Grass (surinam grass; [2]): 0 | Plant response rating, Surinam Grass (surinam grass; [3]): 0 | Plant response rating, Surinam Grass (surinam grass; [4]): 0 | Surinam Grass plant response rating (surinam grass; [5]): 0 | Plant response rating, Surinam Grass (surinam grass; [6]): 53 | Plant response rating, Surinam Grass (surinam grass; [7]): 77 | Plant response rating (scale of 0 to 100), Surinam Grass (surinam grass; Preemergence, 250 g ai/ha): 90 | Plant response rating, Cupgrass, Woolly (cupgrass, woolly; [1]): 0 | Plant response rating, Cupgrass, Woolly (cupgrass, woolly; [2]): 0 | Plant response rating, Cupgrass, Woolly (cupgrass, woolly; [3]): 0 | Plant response rating, Cupgrass, Woolly (cupgrass, woolly; [4]): 0 | Cupgrass, Woolly plant response rating (cupgrass, woolly; [5]): 0 | Plant response rating, Cupgrass, Woolly (cupgrass, woolly; [6]): 32 | Plant response rating, Cupgrass, Woolly (cupgrass, woolly; [7]): 67 | Plant response rating (scale of 0 to 100), Cupgrass, Woolly (cupgrass, woolly; Preemergence, 250 g ai/ha): 82 | Plant response rating, Bromegrass, Downy (bromegrass, downy; [1]): 0 | Plant response rating, Bromegrass, Downy (bromegrass, downy; [2]): 0 | Plant response rating, Bromegrass, Downy (bromegrass, downy; [3]): 0 | Plant response rating, Bromegrass, Downy (bromegrass, downy; [4]): 7 | Bromegrass, Downy plant response rating (bromegrass, downy; [5]): 0 | Plant response rating, Bromegrass, Downy (bromegrass, downy; [6]): 0 | Plant response rating, Bromegrass, Downy (bromegrass, downy; [7]): 0 | Plant response rating (scale of 0 to 100), Bromegrass, Downy (bromegrass, downy; Preemergence, 250 g ai/ha): 0

O=C1NCC(c2ccc(F)c(Cl)c2)C1C(=O)Nc1cccc(F)c1F (centres unmarked) [Compound 59]
Goosegrass plant response rating (goosegrass; [10]): 15 | Plant response rating, Goosegrass (goosegrass; [6]): 25 | Plant response rating, Goosegrass (goosegrass; [7]): 35 | Plant response rating, Cocklebur (cocklebur; [6]): 0 | Bermudagrass plant response rating (bermudagrass; [10]): 20 | Plant response rating, Bermudagrass (bermudagrass; [6]): 20 | Plant response rating, Bermudagrass (bermudagrass; [7]): 40 | Plant response rating, Bermudagrass (bermudagrass; [11]): 50 | Plant response rating Sunflower (sunflower; 62 g ai/ha, scale 0 to 100): 5 | Plant response rating Sunflower (sunflower; [9]): 15 | Plant response rating, Nightshade (nightshade; [9]): 25 | Foxtail, Green plant response rating (foxtail, green; [10]): 85 | Plant response rating, Foxtail, Green (foxtail, green; [6]): 90 | Plant response rating, Foxtail, Green (foxtail, green; [7]): 90 | Plant response rating, Foxtail, Green (foxtail, green; [11]): 98 | Plant response rating, Russian Thistle (Russian thistle; 62 g ai/ha, scale 0 to 100): 0 | Plant response rating, Russian Thistle (Russian thistle; [9]): 0 | Plant response rating, Surinam Grass (surinam grass; [6]): 35 | Plant response rating, Surinam Grass (surinam grass; [7]): 60 | Cupgrass, Woolly plant response rating (cupgrass, woolly; [10]): 40 | Plant response rating, Cupgrass, Woolly (cupgrass, woolly; [6]): 70 | Plant response rating, Cupgrass, Woolly (cupgrass, woolly; [7]): 80 | Plant response rating, Cupgrass, Woolly (cupgrass, woolly; [11]): 80 | Bromegrass, Downy plant response rating (bromegrass, downy; [10]): 0 | Plant response rating, Bromegrass, Downy (bromegrass, downy; [6]): 0 | Plant response rating, Bromegrass, Downy (bromegrass, downy; [7]): 0 | Plant response rating, Bromegrass, Downy (bromegrass, downy; [11]): 20

O=C1NCC(c2ccc3c(c2)OC(F)(F)O3)C1C(=O)Nc1cccc(F)c1F (centres unmarked) [Compound 62]
Goosegrass plant response rating (goosegrass; [10]): 10 | Plant response rating, Goosegrass (goosegrass; [6]): 25 | Plant response rating, Goosegrass (goosegrass; [7]): 70 | Cocklebur plant response rating (cocklebur; [10]): 0 | Plant response rating, Cocklebur (cocklebur; [7]): 0 | Plant response rating, Cocklebur (cocklebur; [11]): 5 | Bermudagrass plant response rating (bermudagrass; [10]): 0 | Plant response rating, Bermudagrass (bermudagrass; [6]): 30 | Plant response rating, Bermudagrass (bermudagrass; [7]): 50 | Plant response rating, Bermudagrass (bermudagrass; [11]): 60 | Plant response rating Sunflower (sunflower; 62 g ai/ha, scale 0 to 100): 20 | Plant response rating Sunflower (sunflower; [9]): 25 | Plant response rating, Nightshade (nightshade; 62 g ai/ha, scale 0 to 100): 15 | Foxtail, Green plant response rating (foxtail, green; [10]): 75 | Plant response rating, Foxtail, Green (foxtail, green; [6]): 90 | Plant response rating, Foxtail, Green (foxtail, green; [7]): 90 | Plant response rating, Foxtail, Green (foxtail, green; [11]): 90 | Plant response rating, Russian Thistle (Russian thistle; 62 g ai/ha, scale 0 to 100): 30 | Plant response rating, Russian Thistle (Russian thistle; [9]): 85 | Plant response rating, Surinam Grass (surinam grass; [6]): 60 | Plant response rating, Surinam Grass (surinam grass; [7]): 80 | Cupgrass, Woolly plant response rating (cupgrass, woolly; [10]): 65 | Plant response rating, Cupgrass, Woolly (cupgrass, woolly; [6]): 75 | Plant response rating, Cupgrass, Woolly (cupgrass, woolly; [7]): 80 | Plant response rating, Cupgrass, Woolly (cupgrass, woolly; [11]): 85 | Bromegrass, Downy plant response rating (bromegrass, downy; [10]): 0 | Plant response rating, Bromegrass, Downy (bromegrass, downy; [6]): 0 | Plant response rating, Bromegrass, Downy (bromegrass, downy; [7]): 0 | Plant response rating, Bromegrass, Downy (bromegrass, downy; [11]): 0

O=C1NCC(c2cccc(Br)c2)C1C(=O)Nc1cccc(F)c1F (centres unmarked) [Compound 64]
Goosegrass plant response rating (goosegrass; [10]): 20 | Plant response rating, Goosegrass (goosegrass; [6]): 20 | Plant response rating, Goosegrass (goosegrass; [7]): 25 | Plant response rating, Cocklebur (cocklebur; [6]): 0 | Bermudagrass plant response rating (bermudagrass; [10]): 0 | Plant response rating, Bermudagrass (bermudagrass; [6]): 0 | Plant response rating, Bermudagrass (bermudagrass; [7]): 25 | Plant response rating, Bermudagrass (bermudagrass; [11]): 55 | Plant response rating Sunflower (sunflower; 62 g ai/ha, scale 0 to 100): 0 | Plant response rating Sunflower (sunflower; [9]): 0 | Plant response rating, Nightshade (nightshade; 62 g ai/ha, scale 0 to 100): 0 | Plant response rating, Nightshade (nightshade; [9]): 0 | Foxtail, Green plant response rating (foxtail, green; [10]): 70 | Plant response rating, Foxtail, Green (foxtail, green; [6]): 85 | Plant response rating, Foxtail, Green (foxtail, green; [7]): 90 | Plant response rating, Foxtail, Green (foxtail, green; [11]): 98 | Plant response rating, Russian Thistle (Russian thistle; 62 g ai/ha, scale 0 to 100): 0 | Plant response rating, Russian Thistle (Russian thistle; [9]): 0 | Plant response rating, Surinam Grass (surinam grass; [6]): 50 | Plant response rating, Surinam Grass (surinam grass; [7]): 65 | Cupgrass, Woolly plant response rating (cupgrass, woolly; [10]): 30 | Plant response rating, Cupgrass, Woolly (cupgrass, woolly; [6]): 70 | Plant response rating, Cupgrass, Woolly (cupgrass, woolly; [7]): 85 | Plant response rating, Cupgrass, Woolly (cupgrass, woolly; [11]): 90 | Bromegrass, Downy plant response rating (bromegrass, downy; [10]): 0 | Plant response rating, Bromegrass, Downy (bromegrass, downy; [6]): 0 | Plant response rating, Bromegrass, Downy (bromegrass, downy; [7]): 0 | Plant response rating, Bromegrass, Downy (bromegrass, downy; [11]): 50
